Measurements as given in patent publication US11236303B2, “CD34+CD41DIM megakaryocytes progenitors and uses thereof for producing proplatelet-bearing MKs and/or platelets” (INSTITUT NATIONAL DE LA SANTE ET DE LA RECHERCHE MEDICALE …, priority 2015, dated 2022).
“And” between values parts separate entries of the source, which are not always exact repeats. Identical values can stand only once.

Key:
Type in all cases: cell-based, human
[1] = test system: peripheral blood CD34+ cells; assay: Quantification of proplatelet-bearing MKs in two-step culture of CD34+ cells
Description: (§1) CD34^+ cells were seeded in 48-well plates at a density of 4×10^4 per mL in StemSpan SFEM medium supplemented with 20 ng/mL human LDL and CC220 (1×), a cocktail of cytokines containing SCF, TPO, IL-6 and IL-9 (all from Stemcell Technologies), with or without addition of 1 μM SR1 (Cellagen Technology, San Diego, Calif.) (FIG. 1A). On day 7, the cells were harvested, washed and seeded at 5×10^4/mL in StemSpan SFEM medium containing 30 ng/mL TPO with or without 1 μM SR1 for an additional 7 days. The cultures were incubated at 37° C. under normoxic conditions and 5% CO2. On days 7 and 10 of culture, the cells were counted, their viability was measured by propidium iodide exclusion in an automatic cell counter (ADAM, Digital-Bio, Korea) and the expression of CD34, CD41 and CD42b was analyzed in a Gallios flow cytometer using Kaluza software (Beckman Coulter, Villepinte, France). In some experiments, SR1 was replaced by the AhR agonist FICZ (Enzo life sciences, Villeurbane, France) added at 0.2 μM.
(§2) The percentage of MKs extending proplatelets was determined in the culture wells by phase-contrast microscopy. In each culture, at least 100 MKs were analyzed and images were acquired using a Zeiss Axio Vert.A1 microscope with a 20× objective (Marly-le-Roi, France).

[2] = test system: peripheral blood CD34+ cells; assay: Determination of the number of platelets produced per seeded cell, two-step culture of CD34+ cells
Description: as §1
In a second protocol, CD34^+ cells were cultured in the presence of mesenchymal stromal cells (MSCs) isolated from human bone marrow (Guilloton F et al., Blood. 2012; 119:2556-2567). MSCs were maintained in α-MEM medium supplemented with 10% fetal bovine serum (Invitrogen, Cergy Pontoise, France) and 2 ng/mL recombinant human (rh) FGF2 (Peprotech, Rocky Hill, N.J.). CD34^+ cells were added to a confluent layer of MSCs at a density of 4×10^4/mL in 48-well plates in StemSpan SFEM medium supplemented with 20 ng/mL human LDL and CC220. […]
CD34^+ cells cultured for 7 days in the presence of CC220 (FIGS. 1A and 5A) or CD34/CD41 sorted cells (FIGS. 4A and 6A) were seeded in a medium containing TPO. […] CD41/CD42c double positive events, having the same scattering properties as washed blood platelets, were counted as platelet-like particles and the number of particles per seeded cell, at day 7 or 10 following experiments, was determined.

[3] = test system: peripheral blood CD34+ cells; assay: CD34/CD41 expression by flow cytometry in MK differentiation culture
Description: as §1
In a second protocol, CD34^+ cells were cultured in the presence of mesenchymal stromal cells (MSCs) isolated from human bone marrow (Guilloton F et al., Blood. 2012; 119:2556-2567). MSCs were maintained in α-MEM medium supplemented with 10% fetal bovine serum (Invitrogen, Cergy Pontoise, France) and 2 ng/mL recombinant human (rh) FGF2 (Peprotech, Rocky Hill, N.J.). CD34^+ cells were added to a confluent layer of MSCs at a density of 4×10^4/mL in 48-well plates in StemSpan SFEM medium supplemented with 20 ng/mL human LDL and CC220. On day 7, the cells in suspension were harvested, washed and co-cultured at 5×10^4/mL on a new layer of confluent MSCs in StemSpan SFEM medium containing 30 ng/mL TPO for an additional 7 days (FIG. 5A).
Surface Markers. Cells were analyzed by flow cytometry (Gallios, Beckman Coulter, France) after labeling with anti-CD34-PE-Cy7 (Beckman Coulter, Fullerton, Calif.), anti-CD41-Alexa-488 (ALMA.17), anti-CD42c-PE (RAM.1) and anti-CD42d-Alexa-647 (V.1) mAbs for 30 min at 4° C. The cells were then washed and resuspended in PBS containing 7-AAD (1/50). The acquired data were analyzed with Kaluza software.

CYP1B1 = CYP1B1 mRNA expression by qPCR (downstream target of AhR)
Description: CD41/61 cells were obtained on day 7 or 10 of culture using the antibody ALMA.17 and magnetic beads (EasySep® “Do-It-Yourself” Selection Kit, StemCell Technologies). Total RNA were extracted using an RNeasy® Mini kit (QIAGEN) following manufacturer's instructions. Quantity and quality of total RNA for all samples were evaluated by measuring OD at 260 nm and concentration was adjusted at 50 ng/ml. The RNA samples were stored at −80° C. until use. qRT-PCR was applied under standard conditions using the SYBR Green Master Mix kit on the ABI Prism 7900 Sequence Detection System (PerkinElmer-Cetus, Courtaboeuf, France). The primers for genes were chosen with the assistance of the Oligo 6.0 program (National Biosciences, Plymouth, Minn.) and have been previously described (Bieche I. et al., Pharmacogenetics and genomics. 2007; 17:731-742).

[4] = test system: peripheral blood CD34+ cells; assay: Two-step MK differentiation culture: level of proliferation (viable cell count)
Description: as §1

CD34+CD41dim cells [5] = assay: Number of platelet-like elements produced per seeded sorted CD34+CD41dim cell
Description: The cells recovered on day 10 were incubated with a mixture of Alexa-488-conjugated anti-CD41 (ALMA.17) and PE-Cy7-conjugated anti-CD34 mAbs (BD Biosciences) for 30 min at 4° C. They were then washed in PBS-EDTA and incubated for 30 min in PBS containing 7-AAD (1/50) to select viable cells. The morphologic and sorting gates were determined by FMO (fluorescence minus one) analysis and megakaryocytic precursors were sorted at 500 cells/s according to their CD34/CD41 expression using a FACS Aria II flow cytometer (Becton Dickinson, Mountain View, Calif.) equipped with a 50 μm nozzle and two argon lasers operating at 500 mW and tuned to 488 and 360 nm, respectively (Coherent Radiation, Palo Alto, Calif.). The sorted CD34^+CD41^dim and CD34 CD41^+ cells were then counted and seeded at 4×10^4/mL in 48-well plates in StemSpan medium containing TPO with or without SR1 for 7 days (FIG. 4A). CD34^+ cells cultured for 7 days in the presence of CC220 (FIGS. 1A and 5A) or CD34/CD41 sorted cells (FIGS. 4A and 6A) were seeded in a medium containing TPO. […] CD41/CD42c double positive events, having the same scattering properties as washed blood platelets, were counted as platelet-like particles and the number of particles per seeded cell, at day 7 or 10 following experiments, was determined.

CD34+CD41dim cells [6] = assay: Quantification of proplatelet-bearing MKs from sorted CD34+CD41dim cells
Description: The cells recovered on day 10 were incubated with a mixture of Alexa-488-conjugated anti-CD41 (ALMA.17) and PE-Cy7-conjugated anti-CD34 mAbs (BD Biosciences) for 30 min at 4° C. They were then washed in PBS-EDTA and incubated for 30 min in PBS containing 7-AAD (1/50) to select viable cells. The morphologic and sorting gates were determined by FMO (fluorescence minus one) analysis and megakaryocytic precursors were sorted at 500 cells/s according to their CD34/CD41 expression using a FACS Aria II flow cytometer (Becton Dickinson, Mountain View, Calif.) equipped with a 50 μm nozzle and two argon lasers operating at 500 mW and tuned to 488 and 360 nm, respectively (Coherent Radiation, Palo Alto, Calif.). The sorted CD34^+CD41^dim and CD34 CD41^+ cells were then counted and seeded at 4×10^4/mL in 48-well plates in StemSpan medium containing TPO with or without SR1 for 7 days (FIG. 4A).
as §2

[7] = SR1-derived CD34+CD41dim cells sorted day 10, 7 days in TPO + SR1 (5 μM)

O=Cc1c2[nH]c3ccccc3c2cc2[nH]c3ccccc3c12 [FICZ]
proplatelet extension of MKs ([1]; SR1 replaced by FICZ (0.2 μM)): dramatic decrease | number of platelet-like elements per cell seeded on day 7 ([2]; day 14, SR1 replaced by 0.2 μM FICZ): 0.20±0.04 platelets/seeded cell | proportion of CD34+CD41dim cells ([3]; MSC co-culture with addition of FICZ, data not shown): reduced | effect on the MSC-induced decrease in CYP1B1 transcripts (CYP1B1; MSC co-culture with addition of FICZ, day 10): reversed

CC(C)n1cnc2c(NCCc3ccc(O)cc3)nc(-c3csc4ccccc34)nc21 [SR1, 4-(2-(2-(benzo[b]thiophen-3-yl)-9-isopropyl-9H-purin-6-ylamino)ethyl)phenol]
percentage of MKs extending proplatelets ([1]; day 14, 1 μM SR1, CC220 day 0-7 then TPO day 7-14): 34.6±2.1% | number of platelet-like elements per cell seeded on day 7 ([2]; day 14, 1 μM SR1): 20.72±5.19 platelets/seeded cell | increase in number of platelet particles after addition of SR1 versus control ([2]; day 14, per cell seeded on day 7): about 3 fold | fold expansion of the total nucleated cells ([4]; day 7, over input of CD34+ cells on day 0, with SR1, mean±SEM, n=8): 4.2±1.2 fold | increase in number of cells from day 7 to day 10 ([4]; day 7 to day 10, SR1-treated cultures): 2.5 times | number of platelet-like elements per seeded cell (CD34+CD41dim cells [5]; [7]): 52.1±8.8 platelets/seeded cell and 52.06±8.79 platelets/seeded cell | enhanced production of platelet-like elements with SR1 as compared to without SR1 (CD34+CD41dim cells [5]; sorted CD34+CD41dim cells, 7 days in TPO): 6.8 fold | decrease in CD34 positivity ([3]; day 7, expansion step with CC220, SR1-treated): 8.3% | CD34+CD41+ cells, % of total population ([3]; day 7, presence of SR1): 68.9±1.8% and 69% | CD34+CD41- cells, % of total population ([3]; day 7, presence of SR1): 22.4±1.5% | CD34-CD41+ cells, % of total population ([3]; day 7, presence of SR1): 3.6±0.3% | CD34+CD41+ cells, % of the cells ([3]; day 10, SR1-treated cultures): 55.1±4.9% and 55% | CD34+CD41dim cells (region R2), % of total cells ([3]; day 10, SR1 treatment, mean±SEM in 8 experiments): 36.8±1.9% | proportion of CD34+ cells ([3]; day 10, after passage in TPO alone, SR1 treatment): 71.6% | CD34-CD41+ cells, % of the cells ([3]; day 10, presence of SR1): 26.7±4.5% | percentage of MKs extending proplatelets (CD34+CD41dim cells [6]; MSC-derived CD34+CD41dim cells sorted day 10, 7 days in TPO + 5 μM SR1, n=4): 49.5±10.5% | percentage of MKs extending proplatelets (CD34+CD41dim cells [6]; [7]): 91.0±2.4% | proportion of the MKs produced that are proplatelet-bearing MKs (CD34+CD41dim cells [6]; from seeded CD34+CD41dim cells, summary statement): About 90% | CYP1B1 expression (CYP1B1; day 7 culture, SR1 treated cells, control 579.8±40.8, n=3): 2.5±0.8 arbitrary units
